The term viscosity denotes the internal friction of a fluid under shear. What is called mass density is the mass of a sample divided by its volume.

Data on two compounds can be found in the NIST ThermoML archive (doi:10.1021/je300997v).

Series [1] in a line: xn = mol fraction of the nth substance listed. The following applies: 298.2 K, 101 kPa, Liquid; for viscosity: Capillary tube (Ostwald / Ubbelohde) method; for mass density: Pycnometric method; for electrical conductivity: conductivity meter.
The conditions of series [2]: Crystal; DTA.

Numbers after ± are expanded uncertainties.

Consider `Cc1ccccc1O` [2-methylphenol] + C[N+](C)(C)CCO.[Cl-], for which the viscosity in series [1] (x1 = 0.6667) is on record as 207.41 ± 12 mPa·s; in series [1] (x1 = 0.75), 77.65 ± 4 mPa·s; in series [1] (x1 = 0.7963), 46.95 ± 2 mPa·s; in series [1] (x1 = 0.8333), 34.9 ± 1.4 mPa·s; in series [1] (x1 = 0.8571), 27.82 ± 1.1 mPa·s. Besides, the mass density amounted to 1077.6 ± 1.2 kg/m3 in series [1] (x1 = 0.6667); 1070.7 ± 1.2 kg/m3 in series [1] (x1 = 0.75); 1066.4 ± 1.2 kg/m3 in series [1] (x1 = 0.7963); 1063.1 ± 1.2 kg/m3 in series [1] (x1 = 0.8333); 1060.6 ± 1.2 kg/m3 in series [1] (x1 = 0.8571). For the same compound, the electrical conductivity in series [1] (x1 = 0.6667) came out at 0.083 ± 0.001 S/m; in series [1] (x1 = 0.75), 0.121 ± 0.002 S/m; in series [1] (x1 = 0.7963), 0.141 ± 0.002 S/m; in series [1] (x1 = 0.8333), 0.145 ± 0.002 S/m; in series [1] (x1 = 0.8571), 0.138 ± 0.002 S/m.

Turning to `C[N+](C)(C)CCO.[Cl-]` [choline chloride], the Normal melting temperature in series [2] was 304.1 ± 0.5 °C.
